Data taken from EP1272220B2, “FORMULATION FOR THE PREVENTION OF CARDIOVASCULAR DISEASE” (Wald, Nicholas John, priority 2000, dated 2001).
Marks after values point to notes of the source that are not given here.

Assays:
[1] = randomised trials; platelet function not measured; cited from earlier work
[2] = Expected reduction in risk of ischaemic heart disease and stroke, from analyses of cohort studies and randomised controlled trials; type: in vivo, persons
From the text: This combined estimate is based on the fact that the effects on the four different risk factors are unrelated and so the expected effects of changing each one will be independent of each other. This expectation is supported by two classes of evidence. […] For example the ratio of the risk of a disease event in persons with high blood pressure and the risk in persons with low blood pressure is similar, irrespective of the values of serum cholesterol and other risk factors. Second, some randomised clinical trials have used combinations of two of the drugs (for example beta blockers and aspirin) in patients with ischaemic heart disease and have shown that the effects are independent (that is, the relative risk in patients who took two drugs (compared with the risk in those who took none) was similar to the relative risk in persons taking one of the drugs multiplied by the relative risk in persons taking the other drug). Accordingly, the effect of the different drugs in combination in Table 3 has been calculated by multiplying the effects of each as shown in footnotes h and j. Table 3 - The constituent drugs in the proposed combined formulation, the cardiovascular risk factors that each alter, the amount by which each factor would be changed, and the resulting expected reduction in risk of ischaemic heart disease and stroke. [table]

[3] = Prevalence of adverse effects in randomised placebo controlled trials (treated minus control); type: in vivo, persons; settings: preferred daily dose: Hydrochlorothiazide 12.5 mg, Atenolol 25 mg, Enalapril 5 mg, Aspirin 75 mg; for Prevalence of any adverse effect in randomised trials (treated minus control) / Prevalence of serious adverse effects (those that warranted withdrawal from randomised trial) (treated minus control): Atorvastatin 10 mg, Folic acid 0.8 mg
From the text: The dose of each medication has been chosen to maximise the ratio of benefit to hazard. It is recognised that some persons taking a combination of six drugs would develop adverse effects that were unacceptable. The adverse effects attributable to each of the component medications would be made clear to persons taking the combined formulation and alternative formulations omitting one or more of the component ingredients, with orwithout a substitute ingredient, would be available for persons unable to tolerate one component. […]

[4] = Analysis of blood pressure reduction according to dose in 187 randomised placebo controlled trials of thiazide diuretics, beta-blockers and ACE inhibitors; type: in vivo, persons; settings: Hydrochlorothiazide 12.5 mg + Atenolol 25 mg + Enalapril 5 mg daily, combined effect, half standard dose
From the text: For drugs used to lower blood pressure, the dose of an active principal is below the lower therapeutic dosage for the indication of the active principal. As used herein, the term "therapeutic dosage" is intended to referto the commonly used dose in clinical practice for the treatment of high levels of the risk factor or for the treatment of cardiovascular disease by the separate active principal. The most preferred doses for blood pressure lowering agents are half of the doses at the lower end of the therapeutic range recommended in the British National Formulary of March 2000. This is in order to maximise the therapeutic benefit of the combination of agents, while minimising the risks of adverse effects of the individual agents. […] Most preferably, the dose of a blood pressure lowering agent is about half the recommended dose (or, where a range of doses is given, half of the recommended dose at the lower end of the recommended therapeutic range) for the blood pressure lowering agent.
The corresponding reductions in incidence of ischaemic heart disease and stroke are those to be expected from the blood pressure reductions, from published analyses of cohort studies and randomised controlled trials of blood pressure and ischaemic heart disease and stroke (references 1, 5).

[5] = Atorvastatin 10 mg daily; published placebo controlled trials (reference 200); cited from earlier work
[6] = Folic acid 0.8 mg daily; cited from earlier work
[7] = single drug at preferred daily dose: Atorvastatin 10 mg, Aspirin 75 mg (14 trials of 50-100 mg daily), Folic acid 0.8 mg
[8] = Hydrochlorothiazide 12.5 mg + Atenolol 25 mg + Enalapril 5 mg daily combined, expected from blood pressure reduction of 12 mmHg diastolic

## CC(=O)Oc1ccccc1C(=O)O [Aspirin]
[1]
  incidence of heart attacks and stroke: reduces the incidence of heart attacks and stroke in both high risk and low risk persons
[2]; [7]
  Expected reduction in risk of: ischaemic heart disease: 38%^e
  Expected reduction in risk of: stroke: 15%^e
[3]
  Commonest adverse effects: bleeding, indigestion
  Prevalence of any adverse effect in randomised trials (treated minus control): 1.8%^b
  Prevalence of serious adverse effects (those that warranted withdrawal from randomised trial) (treated minus control): 0.7%^b (mainly rectal or urinary bleeding)

## CC(C)NCC(O)COc1ccc(CC(N)=O)cc1 (stereo not drawn) [Atenolol]
[2]; [8]
  Expected reduction in risk of: ischaemic heart disease: 43%^b
  Expected reduction in risk of: stroke: 63%^b
[4]
  Associated physiological variable (reduction produced by drug): Blood pressure, diastolic: (12 mmHg diastolic)^a
[3]
  Commonest adverse effects: cold extremities, fatigue, dizziness
  Prevalence of any adverse effect in randomised trials (treated minus control): 5.6%^a
  Prevalence of serious adverse effects (those that warranted withdrawal from randomised trial) (treated minus control): 0.9%^a

## CC(C)c1c(C(=O)Nc2ccccc2)c(-c2ccccc2)c(-c2ccc(F)cc2)n1CC[C@@H](O)C[C@@H](O)CC(=O)O [Atorvastatin]
[5]
  Associated physiological variable (reduction produced by drug): Serum cholesterol: Serum cholesterol (1.8 mmol/I)°
[2]; [7]
  Expected reduction in risk of: ischaemic heart disease: 61 %^d
  Expected reduction in risk of: stroke: 50%^d
[3]
  Prevalence of any adverse effect in randomised trials (treated minus control): 0.1%
  Prevalence of serious adverse effects (those that warranted withdrawal from randomised trial) (treated minus control): <0.1%

## CCOC(=O)[C@H](CCc1ccccc1)N[C@@H](C)C(=O)N1CCC[C@H]1C(=O)O [Enalapril]
[2]; [8]
  Expected reduction in risk of: ischaemic heart disease: 43%^b
  Expected reduction in risk of: stroke: 63%^b
[4]
  Associated physiological variable (reduction produced by drug): Blood pressure, diastolic: (12 mmHg diastolic)^a
[3]
  Commonest adverse effects: cough
  Prevalence of any adverse effect in randomised trials (treated minus control): 2.1%^a
  Prevalence of serious adverse effects (those that warranted withdrawal from randomised trial) (treated minus control): 0.2%^a

## Nc1nc2ncc(CNc3ccc(C(=O)N[C@@H](CCC(=O)O)C(=O)O)cc3)nc2c(=O)[nH]1 [Folic acid]
[2]; [7]
  Expected reduction in risk of: ischaemic heart disease: 15%^g
[6]
  Associated physiological variable (reduction produced by drug): Plasma/serum homocysteine: Plasma/serum homocysteine (3 µmol/I)^f
[3]
  Prevalence of any adverse effect in randomised trials (treated minus control): <0.1%
  Prevalence of serious adverse effects (those that warranted withdrawal from randomised trial) (treated minus control): <0.1%

## NS(=O)(=O)c1cc2c(cc1Cl)NCNS2(=O)=O [Hydrochlorothiazide]
[2]; [8]
  Expected reduction in risk of: ischaemic heart disease: 43%^b
  Expected reduction in risk of: stroke: 63%^b
[4]
  Associated physiological variable (reduction produced by drug): Blood pressure, diastolic: (12 mmHg diastolic)^a
[3]
  Commonest adverse effects: dizziness, impotence, nausea
  Prevalence of any adverse effect in randomised trials (treated minus control): 1.4%^a
  Prevalence of serious adverse effects (those that warranted withdrawal from randomised trial) (treated minus control): 0.1%^a
